# The source made the active and inactive calls. No cut-off for these calls is given here.
# Tests used:
# [1] = target: Glutamate receptor ionotropic, kainate; assay: Tested for the ability to displace [3H]kainate (5 nM) binding from Ionotropic glutamate receptor kainate in rat forebrain membranes; assay type: cell membranes, Membrane
# [2] = target: Glutamate receptor ionotropic, AMPA (Rattus norvegicus, UniProt P19490+P19491+P19492+P19493); assay: Tested for the ability to displace [3H]AMPA (5 nM) from Ionotropic glutamate receptor AMPA in rat forebrain membranes; assay type: cell membranes, Membrane
# [3] = target: Glutamate receptor ionotropic, NMDA 2C (Rattus norvegicus, UniProt Q00961); assay: Tested for the ability to displace [3H]CGS-19,755 (10 nM) binding in rat forebrain membranes for NMDA receptor; assay type: cell membranes, Membrane
# Rattus norvegicus = species: Rattus norvegicus; assay: Tested for the ability to antagonize depolarizations induced by NMDA (40 uM), AMPA (40 uM); insignificant; assay type: functional
# Sequence of Glutamate receptor ionotropic, NMDA 2C (Q00961 whole entry): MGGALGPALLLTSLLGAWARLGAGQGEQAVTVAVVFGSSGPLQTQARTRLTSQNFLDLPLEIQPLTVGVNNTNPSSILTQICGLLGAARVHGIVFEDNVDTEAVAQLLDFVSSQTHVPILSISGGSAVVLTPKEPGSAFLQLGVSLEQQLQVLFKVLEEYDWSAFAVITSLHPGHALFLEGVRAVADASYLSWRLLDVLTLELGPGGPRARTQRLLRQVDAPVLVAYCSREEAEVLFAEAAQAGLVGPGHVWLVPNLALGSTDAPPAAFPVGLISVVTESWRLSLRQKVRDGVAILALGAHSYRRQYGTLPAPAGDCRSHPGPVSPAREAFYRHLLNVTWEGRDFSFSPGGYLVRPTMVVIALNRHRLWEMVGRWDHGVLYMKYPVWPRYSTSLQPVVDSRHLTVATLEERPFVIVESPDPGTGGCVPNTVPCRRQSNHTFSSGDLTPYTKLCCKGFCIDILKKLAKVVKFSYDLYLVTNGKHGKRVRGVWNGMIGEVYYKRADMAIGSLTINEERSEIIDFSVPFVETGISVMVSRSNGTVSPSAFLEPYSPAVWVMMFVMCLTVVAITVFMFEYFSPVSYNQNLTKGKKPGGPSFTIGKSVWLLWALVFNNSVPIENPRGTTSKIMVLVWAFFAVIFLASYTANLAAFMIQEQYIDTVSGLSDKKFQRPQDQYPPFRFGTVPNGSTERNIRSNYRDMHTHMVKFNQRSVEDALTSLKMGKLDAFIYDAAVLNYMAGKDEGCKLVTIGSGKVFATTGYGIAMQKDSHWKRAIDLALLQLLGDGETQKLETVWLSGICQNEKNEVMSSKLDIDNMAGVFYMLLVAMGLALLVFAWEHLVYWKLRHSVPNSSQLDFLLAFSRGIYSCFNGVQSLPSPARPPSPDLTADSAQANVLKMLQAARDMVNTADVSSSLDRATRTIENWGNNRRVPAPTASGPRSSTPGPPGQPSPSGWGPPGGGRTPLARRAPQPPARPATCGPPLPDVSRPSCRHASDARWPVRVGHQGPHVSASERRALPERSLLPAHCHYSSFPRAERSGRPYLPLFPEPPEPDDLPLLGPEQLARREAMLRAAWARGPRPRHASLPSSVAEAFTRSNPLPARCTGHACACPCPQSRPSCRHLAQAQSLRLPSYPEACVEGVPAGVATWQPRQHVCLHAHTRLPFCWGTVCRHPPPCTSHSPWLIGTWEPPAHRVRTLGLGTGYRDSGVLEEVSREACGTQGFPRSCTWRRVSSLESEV
compound,measurement,setting,value
O=C(O)[C@H]1C[C@H](c2nnn[nH]2)CN1,IC50,[1],> 100 µM
same,IC50,[2],> 100 µM
same,IC50,[3],> 100 µM
O=C(O)[C@@H]1C[C@@H](c2nnn[nH]2)CN1,IC50,[1],61 µM
same,Effect,Rattus norvegicus,inactive
same,IC50,[2],3.38 µM
same,IC50,[3],> 100 µM
O=C(O)[C@H]1CN[C@H](C(=O)O)C1,IC50,[1],> 100 µM
same,IC50,[2],> 100 µM
same,IC50,[3],> 100 µM
